Test results taken from patent US10238631B2, “Sesquiterpene derivatives and their use in inflammation or cancer treatment” (Academia Sinica, priority 2014, dated 2019).
“And” between values parts separate entries of the source, which are not always exact repeats. Equal values may be shown once. Read-outs that look alike come from different tables or passages of the source. Values belong to the compound of their own block, whether it stands above or below them.

Key:
[1] = system: SK-N-MC neuroepithelioma line; experiment: MTT cell viability assay, SK-N-MC; format: cell-based; settings: Homo sapiens, 24 h
Procedure: (§1) Normal or cancer cells (2×10^3 to 1×10^4 cells/well) were seeded in 96-well plate for overnight and treated with different compounds for 24 h to 72 h. Cells growth were determined by MTT-based colorimetric assays according to. Viability of the test cells treated with vehicle (0.5% DMSO) only was defined as 100% viable. Survival of cells after treatment with DETDs was calculated using the following formula: viable cell number (%)=OD570 (treated cell culture)/OD570 (vehicle control)×100.
(§2) Based on toxicity results of DET and DETDs on different breast cancer and melanoma cell lines, we selected DETD-6, -32, -35 and -39, under the consideration of structure activity relationship for evaluating their suppression effect against other cancer types of cell line with indicated tumor origin in Table 5. […] The cells were treated with compounds for 24 h and then subjected to MTT assays.

[2] = system: A498 kidney cancer cell line; experiment: MTT cell viability assay, A498; format: cell-based; settings: Homo sapiens, 24 h
Procedure: as §1, §2

[3] = system: MeWo (No NRAS or BRAF mutation); experiment: MTT cell viability assay, MeWo melanoma; format: cell-based, human; settings: Homo sapiens, MeWo, 24 h
In short: (§3)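 Viability is determined colorimetrically with MTT after a 24 h to 72 h compound treatment. Vehicle wells containing 0.5% DMSO define 100% viability, and treated OD570 values are expressed relative to them.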

A2058 (BRAF mutation) = experiment: MTT cell viability assay, A2058 melanoma; format: cell-based, human; settings: Homo sapiens, A2058, 24 h
In short: as §3

A375 (BRAF mutation) = experiment: MTT cell viability assay, A375 melanoma; format: cell-based, human; settings: Homo sapiens, MTT
In short: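 A375 cells were seeded at 2×10^3 to 1×10^4 per well overnight and then exposed to compounds for 24 h to 72 h. Viability was measured by MTT absorbance at OD570 relative to 0.5% DMSO vehicle (100%), and IC50 was derived from it. Combination with PLX4032 was scored by combination index.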

[4] = system: M10 normal mammary epithelial cells; experiment: MTT cell viability assay, M10 normal cells; format: cell-based, human; settings: 24 h
In short: (§4)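 Viability is scored colorimetrically by MTT after cells, plated at 2×10^3 to 1×10^4 per well the night before, receive compounds for 24 h to 72 h; 0.5% DMSO-treated wells define 100%.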

[5] = system: MCF-7 (ER+, Her2−) human breast cancer cells; experiment: MTT cell viability assay, MCF-7 cells; format: cell-based
In short: as §4

PC3 (Prostate) = experiment: MTT cell viability assay, PC3; format: cell-based; settings: 24 h
Procedure: as §1, §2

[6] = system: U-87MG brain cancer cell line; experiment: MTT cell viability assay, U-87MG; format: cell-based; settings: Homo sapiens, 24 h
Procedure: as §1, §2

U937 lymphoma line = experiment: MTT cell viability assay, U937; format: cell-based; settings: Homo sapiens, U-937, 24 h
Procedure: as §1, §2

[7] = system: KATO III stomach cancer cell line; experiment: MTT cell viability assay, KATO III; format: cell-based; settings: Homo sapiens, 24 h
Procedure: as §1, §2

HTB-68 (NRAS mutation) = experiment: MTT cell viability assay, HTB-68 melanoma; format: cell-based, human; settings: Homo sapiens, 24 h
In short: as §3

[8] = system: Melanocyte (Normal cells); experiment: MTT cell viability assay, normal melanocytes; format: cell-based, human; settings: Homo sapiens, Melanocyte, 24 h
In short: as §3

[9] = system: MDA-MB-231 (ER−, PR−, Her2−) human breast cancer cells; experiment: MTT cell viability assay, MDA-MB-231 cells; format: cell-based; settings: for IC50: Homo sapiens
In short: as §4

[10] = system: RAW264.7 (normal macrophage); experiment: MTT cell viability assay, RAW264.7 macrophages; format: cell-based, mouse; settings: Mus musculus, RAW264.7, 24 h
In short: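 RAW264.7 macrophages (2×10^5 cells/well) pretreated with compounds 1 h, then incubated 24 h with or without 100 ng/μL LPS. Viability by MTT colorimetric assay run in parallel with Griess nitrite measurement.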

[11] = system: melanoma cell lines B16-F10, MeWo, A375, A2058, HTB-68; experiment: MTT cell viability assay, all melanoma cell lines; format: cell-based; settings: 24 h, read-out: IC50 values over all types of melanoma cell lines
Procedure: as §1
Several genes are involved in melanoma development and pathology; specifically, mutation in V-raf murine sarcoma viral oncogene homolog B1 (B-RAF) occurs approximately 50-60% and in neuroblastoma RAS viral oncogene homolog (N-RAS) occurs about 30% of malignant melanomas. A spectrum of wild-type or mutated melanoma cell lines including B16-F10, MeWo, A375, A2058, HTB-68, and melanocyte were used to study anti-melanoma cell proliferation activity of parental phytocompound DET and newly synthesized DETDs.

MDA-MB-231 cells [12] = experiment: Compound-drug combination assay with PTX; format: cell-based, human; settings: 0-4 μM compound, 0-25 nM PTX
Procedure: Cell proliferation was measured by MTT assay. Isobologram analysis and Chou-Talalay method was used to determine the effects of compound drug combinations. The interaction of DETDs and PLX4032 or PTX was determined by the combination index (CI), and the CI plot was generated using CompuSyn software. The combined effects of two compounds can be categorized as follows: CI=1 indicates additive interaction, CI<1 indicates synergism, and CI>1 indicates antagonism.
To investigate whether or not DETD-35 and DETD-39 act synergistically with PTX against MDA-MB-231 cell activity, anti-proliferation assay using MTT reagent was performed to obtain the IC60 value of each compound. […] Based on the IC60 values, DETD-35 or DETD-39 ranging from 0 to 4 μM and PIX from 0 to 25 nM were used for compound-drug combination study. Classic isobologram analysis and Chou-Talalay method were conducted to investigate the synergistic effect of compound and drug. Combination index (CI) was calculated with CalcuSyn software (Version 2.0, Biosoft) and expressed as CI vs. Fa (fraction affected). CI<1 indicates synergy; CI=1 indicates additive effect; and CI>1 indicates antagonism.

B16-F10 (NRAS mutation) = experiment: MTT cell viability assay, B16-F10 melanoma; format: cell-based; settings: Mus musculus, B16-F10, 24 h
In short: as §3

[13] = system: HCT-116 colon cancer cell line; experiment: MTT cell viability assay, HCT-116; format: cell-based; settings: Homo sapiens, 24 h
Procedure: as §1, §2

[14] = system: NES-SA uterus cancer cell line; experiment: MTT cell viability assay, NES-SA; format: cell-based; settings: 24 h
Procedure: as §1, §2

[15] = system: PC6 lung cancer cell line; experiment: MTT cell viability assay, PC6; format: cell-based; settings: 24 h
Procedure: as §1, §2

[16] = system: LPS-induced nitric oxide (NO) production in RAW 264.7 cells; experiment: Nitric oxide production in LPS-stimulated macrophages (Griess); format: cell-based, mouse
In short: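 RAW 264.7 macrophages (2×10^5 cells/well) were pretreated with compound for 1 h and then stimulated with 100 ng/μL LPS for 24 h. NO was measured as nitrite in the medium by the Griess reaction. Viability was checked in parallel by MTT.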

[17] = system: TS/A (ER+, Her2−) murine mammary cancer cells; experiment: MTT cell viability assay, TS/A cells; format: cell-based; settings: Mus musculus
In short: as §4

MDA-MB-231 cells [18] = system: MDA-MB-231 cells
Procedure: Briefly, cells (5×10^3 cells/well) were seeded in 96-well plates and treated with BSO at concentrations 100 μM, 45 μM, 18 μM, 7.2 μM, 2.8 μM, 1.15 μM, 461 nM, 184 nM, 74 nM and 29 nM, and sulfasalazine at concentrations 62.75 μM, 25.10 μM, 10 μM, 4 μM, 1.6 μM, 642 nM, 257 nM, 102 nM, 41 nM and 16.4 nM for 30 h, and then 12 μM DET or 3 μM DETD-35 were added in the cultural medium to treat the cells for another 24 h. Cell proliferation was measured by MIT assay.

[19] = system: A375 human melanoma tumor; experiment: A375 melanoma xenograft model in NOD/SCID mice; format: in vivo, mouse; settings: 20 mg/kg i.p.; PLX4032 every day, DET and DETD-35 every two days
Procedure: (§5) A375 and A375-R melanoma cells (3×10^6) were injected subcutaneously to the flanks of the six weeks old NOD/SCID mice. One week after the inoculation, the mice were randomized into treated groups (n=8 per group) and the treatments were started. Body weight and tumor volume of the mice were recorded every three days using formula a×b^2×0.5, where a and b represented the larger and smaller tumor diameters.
We used A375 human melanoma xenograft model to evaluate the in vivo bioefficacy of DET. DETD-35, PLX4032 and compound drug combination. […] For single compound or drug treatment group, PLX4032 was administered i.p. every day and DET and DETD-35 were administered i.p. every two days. For combination treatment, PLX4032 was administered every two days while DET and DETD-35 were administered every four days. […] Compound-drug combinational treatments were carried out with alternative administration of DET (20 mg/kg) or DETD-35 (20 mg/kg) and PLX4032 (20 mg/kg) by which DET or DETD-35 and PLX4032 treatment frequency were only half of the single compound or drug administration alone.

[20] = system: A375-R PLX4032-resistant melanoma tumor; experiment: A375-R melanoma xenograft model in NOD/SCID mice; format: in vivo, mouse; settings: PLX4032 75 mg/kg
Procedure: as §5
To study whether or not DETD-35 could overcome acquired resistance to BRAF inhibitor, we generated A375 cell line resistant to PLX4032 (designated A375-R) as described above. We then conducted A375-R orthotopic xenograft study.

[21] = system: DMBA/TPA-induced skin papillomas accelerated by PLX4032
Procedure: Dorsal skin of six weeks old female FVB/N mice were shaved and treated with topical application of DMBA (25 μg in 100 μL acetone). One week after DMBA treatment, the same skin area were treated topically twice weekly with 12-O-tetradecanoylphorbol-13-acetate (TPA) (4 μg in 100 μL acetone). The area was regularly shaved and tumor formation was assessed twice weekly, and tumors were defined as raised lesions of a minimum diameter of 1 mm.

[22] = system: A375-R acquired vemurafenib resistance melanoma cells; experiment: MTT cell viability assay, PLX4032-resistant A375-R; format: cell-based, human; settings: 72 h
Procedure: A375-R, acquired vemurafenib resistance melanoma cell was generated from A375 parental cell and grown in same conditions as A375 cell.
as §1
To study the mechanisms underlying how DETD-35 overcomes acquired resistance to BRAF inhibitor, we generated A375 cell line resistant to PLX4032 (designated A375-R). Briefly, A375 melanoma cells were seeded in T75 plate and treated with ascending concentration of PLX4032 (20, 50, 100, 250, 500, 1000, 2000 nM) through approximately 2 months and 20 passages.

[23] = DMBA/TPA + PLX4032 20 mg/kg i.p. twice per week

IC50 [1]: 110 nM | IC50 [2]: 480 nM | IC50 [3]: 3500 nM | IC50 (A2058 (BRAF mutation)): 2400 nM | IC50 (A375 (BRAF mutation); A-375, 24 h, 24 h, read-out: IC50 on cell viability, A375 (BRAF mutation)): 1600 nM | IC50 ([5]; MCF7, 24 h, read-out: IC50 on cell viability, MCF-7 (ER+, Her2−)): 2100 nM | IC50 ([5]; MCF7, Table 5, 24 h, read-out: IC50 viability MCF-7 (Breast)): 2400 nM | IC50 (PC3 (Prostate)): 2600 nM | IC50 [6]: 150 nM | IC50 (U937 lymphoma line): 100 nM | IC50 [7]: 290 nM | IC50 (HTB-68 (NRAS mutation)): 3200 nM | IC50 ([9]; MDA-MB-231, 24 h, read-out: IC50 on cell viability, MDA-MB-231 (ER−, PR−, Her2−)): 1900 nM | IC50 ([9]; MDA-MB-231, Table 5, 24 h, read-out: IC50 viability MDA-MB-231 (Breast)): 1900 nM | IC50 [11]: 1600 to 9900 nM and 1600 to 3500 nM | IC50 (B16-F10 (NRAS mutation); 24 h, read-out: IC50 on cell viability, B16-F10 (NRAS mutation)): 1700 nM | IC50 (B16-F10 (NRAS mutation); Table 5, 24 h, read-out: IC50 viability B16-F10 (mouse) (Skin)): 1700 nM | IC50 [13]: 100 nM | IC50 [14]: 140 nM | IC50 [15]: 110 nM | fold decrease in IC50 of NO production vs DET [16]: 3 fold | IC50 ([16]; Mus musculus, LPS-stimulated RAW264.7, nitrite 24 h after LPS): 1000 nM | IC50 ([17]; 24 h, read-out: IC50 on cell viability, TS/A (ER+, Her2−)): 800 nM | IC50 ([17]; Table 5, 24 h, read-out: IC50 viability TS/A (mouse) (Breast)): 800 nM
SMILES: C=C1C(=O)OC2CC3=C[C@@H](C/C(C)=C/C(OC(=O)/C=C/c4cccc(OC)c4)[C@H]12)OC3=O (stereo partly shown) [DETD-39]
IC50 on cell viability, M10 (normal) [4]: some toxicity | IC50 ([4]; Homo sapiens, Epithelial cell): 3700 nM | IC50 [8]: 9000 nM | IC60 on MDA-MB-231 cells ([9]; 24 h): 3790 nM | IC50 [10]: 3500 nM | combination effect with PTX (isobologram, combination index) (MDA-MB-231 cells [12]): acted synergistically

SMILES: O=C(O)c1cc(/N=N/c2ccc(S(=O)(=O)Nc3ccccn3)cc2)ccc1O [sulfasalazine]
cytotoxicity of blocker alone (MDA-MB-231 cells [18]): did not show any cytotoxicity

SMILES: CCCCS(=N)(=O)CCC(N)C(=O)O (stereo not shown) [BSO, buthionine sulfoximine]
cytotoxicity of blocker alone (MDA-MB-231 cells [18]): did not show any cytotoxicity

SMILES: CCCS(=O)(=O)Nc1ccc(F)c(C(=O)c2c[nH]c3ncc(-c4ccc(Cl)cc4)cc23)c1F [PLX4032, Vemurafenib]
reduction of tumor mass vs tumor control [19]: 71.9% | IC50 (A375 (BRAF mutation); A-375, 72 h, 72 h, read-out: IC50 on A375 cells): 70 nM | tumor growth rate and size relative to control group (100%) [20]: 98% | start of papillomas formation ([21]; DMBA-TPA treated mice + PLX4032, without PLX4032 week 6 to 7): 3 to 4 weeks | papillomas size in average [21, 23]: 77.6 mm^3 | total papillomas number [21, 23]: 25.6 | fold less sensitive, A375-R vs parental A375 [22]: more than 100 fold | IC50 ([22]; Homo sapiens, MTT): 8300 nM
